SMILES strings stand for the structures.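 In this assay, cells in 96-well plates receive the compound at five concentrations for 48 hours. Endpoints are linearly interpolated between the surrounding concentrations. Here, GI50 denotes the concentration required for 50% inhibition of growth.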 The source made the active and inactive calls. Cut-off read from the data, not from the text of the source: active = GI50 up to about 1.1 µM and inactive = higher. A value given as a limit tells only on which side of the number the result lay.

From ChEMBL document CHEMBL1201862, “PubChem BioAssay data set” (2004) come the findings set out here.

Among the test systems are NCI-H226; LXFL 529; OVCAR-8; SW-620; SK-MEL-2; HCT-15; HT-29; SF-295; UO-31; SN12C; A549; U-251; SF-539; HOP-92; EKVX; OVCAR-5; RXF 393; NCI/ADR-RES; MDA-MB-231; MDA-N.
What all share (assay): growth of human tumour cells (NCI), 48 h

Consider `O=C(CC(O)(c1ccccc1)c1ccc(Cl)cc1)NC(=O)c1ccccc1O` (stereo not drawn), for which the GI50 is 7.87 µM (inactive) in the assay with NCI-H226; 4.35 µM (inactive) with LXFL 529; 4.54 µM (inactive) in the assay with OVCAR-8; 18.7 µM (inactive) in the assay on SW-620; 5.3 µM (inactive) with SK-MEL-2; 4.12 µM in the assay with HCT-15. The GI50 with HT-29 is 18.8 µM (inactive); in the assay with SF-295 it was 4.4 µM (inactive); in the assay with UO-31, 2.42 µM (inactive); with SN12C, 3.76 µM (inactive); in the assay with A549 it was 8.07 µM (inactive); in the assay on U-251, 3.38 µM (inactive). The GI50 in the assay on SF-539 was 11.6 µM (inactive); in the assay on HOP-92, 2.13 µM (inactive); in the assay with EKVX, 20.7 µM (inactive); in the assay with OVCAR-5, 1.99 µM (inactive); in the assay on RXF 393, 11.7 µM (inactive).

Consider `O=C(Cc1nc2sc3c(c2c(=O)[nH]1)CCCC3)Nc1ccccc1`, for which the GI50 in the assay with NCI-H226 was > 100 µM (inactive); with LXFL 529, > 100 µM (inactive); with OVCAR-8 it was > 100 µM (inactive); with SW-620 it was > 100 µM (inactive); in the assay with SK-MEL-2, > 100 µM (inactive); in the assay on HCT-15, more than 100 µM. The GI50 in the assay with HT-29 is > 100 µM (inactive); with SF-295, > 100 µM (inactive); with SN12C, > 100 µM (inactive); in the assay on A549, > 100 µM (inactive); with U-251 it was > 100 µM (inactive); in the assay on SF-539 it was 73.6 µM (inactive). Further, the GI50 in the assay on HOP-92 was > 100 µM (inactive); in the assay with EKVX, > 100 µM (inactive); in the assay on OVCAR-5, > 100 µM (inactive); with RXF 393, 15.5 µM (inactive).

For the compound `CCCCCCCCCCC(O)C1CCC(C(O)CCC(O)C2CCC(CCCCCCC[C@H](O)CC3=C[C@@H](C)OC3=O)O2)O1` (stereo partly drawn), the GI50 in the assay with NCI-H226 was 2.64 µM (inactive); with LXFL 529, 14.6 µM (inactive); with NCI/ADR-RES, 0.957 µM (active); in the assay with OVCAR-8, 10.2 µM (inactive); with SW-620, > 51.4 µM (inactive); in the assay with SK-MEL-2, > 100 µM (inactive). Also, the GI50 is more than 53.1 µM with HCT-15; > 100 µM (inactive) with HT-29; 0.01 µM (active) in the assay with SF-295; 2.25 µM (inactive) with UO-31; > 48.9 µM (inactive) in the assay with SN12C; 15.1 µM (inactive) with A549. Moreover, the GI50 with U-251 was 10.2 µM (inactive); in the assay on SF-539, 26.8 µM (inactive); with MDA-MB-231, > 10 µM (inactive); with HOP-92, 11.6 µM (inactive); in the assay with EKVX it was 34.8 µM (inactive); with OVCAR-5, > 100 µM (inactive). For the same compound, the GI50 in the assay on MDA-N is > 10 µM (inactive); in the assay on RXF 393, 5.81 µM (inactive).

As for `CC12C3CC4C5CC(C(C53)[C@@H]1NCc1ccccc1)C42` (stereo partly drawn), the GI50 in the assay on NCI-H226 was > 100 µM (inactive); in the assay on LXFL 529 it was > 100 µM (inactive); with OVCAR-8 it was > 100 µM (inactive); in the assay with SW-620 it was > 100 µM (inactive); in the assay on SK-MEL-2, > 100 µM (inactive); in the assay with HCT-15, 78.9 µM. Also, the GI50 in the assay with HT-29 is 24.4 µM (inactive); in the assay on SF-295, > 100 µM (inactive); in the assay on UO-31, 89.7 µM (inactive); in the assay with SN12C, > 100 µM (inactive); with A549 it was > 100 µM (inactive); in the assay with U-251 it was 97.5 µM (inactive). The GI50 in the assay with SF-539 is > 100 µM (inactive); in the assay with HOP-92, 55.7 µM (inactive); with EKVX it was > 100 µM (inactive); with OVCAR-5, 86.9 µM (inactive); in the assay on RXF 393, 84.9 µM (inactive).

With `CCCCCCCCOCC(O)CO` (stereo not drawn), the GI50 in the assay with NCI-H226 is 84.9 µM (inactive); with LXFL 529, > 100 µM (inactive); in the assay with OVCAR-8, > 100 µM (inactive); in the assay on SW-620, > 100 µM (inactive); in the assay with SK-MEL-2 it was > 100 µM (inactive); with HCT-15, more than 100 µM. Moreover, the GI50 in the assay on HT-29, in the assay with SF-295, in the assay on UO-31, with SN12C, with A549 and in the assay with U-251 was > 100 µM (inactive) throughout. Moreover, the GI50 in the assay on SF-539 was > 100 µM (inactive); with HOP-92, 41.8 µM (inactive); in the assay with EKVX, > 100 µM (inactive); with OVCAR-5 it was > 100 µM (inactive); with RXF 393 it was > 100 µM (inactive).

For `O=c1c(Cl)c(Cl)cnn1CCc1ccncc1`, the GI50 with NCI-H226 was 29.4 µM (inactive); with LXFL 529, 15.8 µM (inactive); in the assay with OVCAR-8, 22.1 µM (inactive); in the assay with SW-620 it was 19.1 µM (inactive); with SK-MEL-2 it was 20.3 µM (inactive); in the assay on HCT-15, 16.4 µM. In addition, the GI50 was 16.6 µM (inactive) in the assay with HT-29; 29.5 µM (inactive) in the assay on SF-295; 20.8 µM (inactive) with UO-31; 18 µM (inactive) in the assay with SN12C; 37.9 µM (inactive) with A549; 21.5 µM (inactive) in the assay on SF-539. Moreover, the GI50 in the assay with HOP-92 is 20.4 µM (inactive); in the assay with EKVX it was 19.6 µM (inactive); with OVCAR-5, 19.5 µM (inactive); in the assay with RXF 393, 24.6 µM (inactive).

Regarding `Cc1ccc(NC(=O)/C(=N/NC(=O)CC#N)C2C(=O)N(c3ccccc3)N=C2N)cc1C` (stereo not drawn), the GI50 is > 100 µM (inactive) in the assay with NCI-H226; > 100 µM (inactive) in the assay with LXFL 529; > 100 µM (inactive) with OVCAR-8; > 100 µM (inactive) in the assay with SW-620; > 100 µM (inactive) in the assay on SK-MEL-2; more than 100 µM in the assay with HCT-15. Further, the GI50 in the assay on HT-29, in the assay with SF-295, in the assay on UO-31, in the assay on SN12C, in the assay with A549 and with U-251 was > 100 µM (inactive) each time. Also, the GI50 with SF-539, in the assay with HOP-92, in the assay on EKVX, in the assay on OVCAR-5 and with RXF 393 was > 100 µM (inactive) in each case.

As to `CCCCCCCCCCCCCCCCCC(=O)OCC(C[As](=O)(O)O)OC(=O)CCCCCCCCCCCCCCCCC` (stereo not drawn), the GI50 was 24.4 µM (inactive) in the assay with NCI-H226; 72.9 µM (inactive) in the assay with LXFL 529; > 100 µM (inactive) in the assay on OVCAR-8; 16 µM (inactive) in the assay on SW-620; 70.1 µM (inactive) with SK-MEL-2; 38.4 µM in the assay with HCT-15. Besides, the GI50 in the assay on HT-29 was 34.4 µM (inactive); with SF-295 it was 32.7 µM (inactive); in the assay with UO-31, > 100 µM (inactive); in the assay with SN12C, 50.1 µM (inactive); in the assay with A549, > 100 µM (inactive); in the assay on U-251 it was 26 µM (inactive). Moreover, the GI50 was 32.6 µM (inactive) with SF-539; 11.4 µM (inactive) with HOP-92; > 100 µM (inactive) in the assay with EKVX; > 100 µM (inactive) in the assay with OVCAR-5; 19.2 µM (inactive) with RXF 393.

Consider `CC(C)C1(O)C(c2ccccc2)=C(c2ccccc2)C(c2ccccc2)=C1c1ccccc1`, for which the GI50 with NCI-H226 is 7.26 µM (inactive); in the assay with LXFL 529 it was 5.19 µM (inactive); in the assay with OVCAR-8, 10.3 µM (inactive); in the assay on SW-620, 6.12 µM (inactive); in the assay with SK-MEL-2, 5.33 µM (inactive); with HCT-15, 5.22 µM. In addition, the GI50 was 4.26 µM (inactive) in the assay on HT-29; 12.6 µM (inactive) in the assay with SF-295; 2.46 µM (inactive) with UO-31; 5.31 µM (inactive) with SN12C; 6.76 µM (inactive) in the assay on A549; 5.11 µM (inactive) with U-251. For the same compound, the GI50 in the assay on SF-539 was 12.5 µM (inactive); with HOP-92, 4.38 µM (inactive); in the assay with EKVX, 5.28 µM (inactive); with OVCAR-5, 17.5 µM (inactive); in the assay with RXF 393 it was 2.82 µM (inactive).

`CN(C)CCC1(C2=CCCC2)CC/C(=C\c2ccc(Cl)cc2)C1=O` (stereo not drawn): the GI50 is 14.2 µM (inactive) in the assay on NCI-H226; 8.95 µM (inactive) in the assay with LXFL 529; 12.3 µM (inactive) in the assay on OVCAR-8; 9.4 µM (inactive) in the assay with SW-620; 4.45 µM (inactive) with SK-MEL-2; 5.07 µM with HCT-15. The GI50 with HT-29 is 2.95 µM (inactive); in the assay with SF-295 it was 7.82 µM (inactive); with UO-31, 5.33 µM (inactive); in the assay with SN12C, 11.9 µM (inactive); with A549, 12.4 µM (inactive); with U-251, 8.87 µM (inactive). Besides, the GI50 in the assay with SF-539 was 12.7 µM (inactive); with HOP-92, 3.89 µM (inactive); with EKVX, 7.16 µM (inactive); in the assay on OVCAR-5 it was 12.9 µM (inactive); with RXF 393 it was 2.31 µM (inactive).

In the case of `C[n+]1ccc(-c2cc[n+](C)cc2)cc1` [PARAQUAT DICHLORIDE], the GI50 was 8.43 µM (inactive) in the assay with NCI-H226; > 37.1 µM (inactive) with LXFL 529; > 30 µM (inactive) in the assay with OVCAR-8; > 42 µM (inactive) in the assay on SW-620; 2.69 µM (inactive) with SK-MEL-2; more than 32.4 µM in the assay with HCT-15. The GI50 was 10.8 µM (inactive) in the assay on HT-29; > 19.6 µM (inactive) with SF-295; > 100 µM (inactive) in the assay with UO-31; 10.2 µM (inactive) in the assay on SN12C; 12.1 µM (inactive) with A549; > 32.8 µM (inactive) in the assay with U-251. Besides, the GI50 was 20.7 µM (inactive) with SF-539; > 44.5 µM (inactive) with HOP-92; > 30.6 µM (inactive) with EKVX; 19.7 µM (inactive) with OVCAR-5; 0.644 µM (active) in the assay with RXF 393.
